Results on two molecules are retold here after patent EP0146155A1, “Ether of N-propanolamine derivative” (AKZO N.V., priority 1983, dated 1985).

Series [1] can be described thus: QTc prolongation in the ECG (electrocardiogram). In kind it is in vivo.
The next series relates to calcium. Put plainly: calcium-antagonistic activity (measure for anti-anginal activity). The settings on record: compared with either the racemate or the levo-rotatory isomer.
The nature of another series: anti-arrhythmic potency. The conditions noted are these: compared with the racemate and the levo-rotatory isomer.
For another series, the system named is rat. The experiment in a line: arrhythmogenic activity under specific hypokalaemic conditions in the rat. In kind it is in vivo.
The nature of another series: solubility in water. In kind it is physicochemical. The conditions noted are these: compared with the racemate.
Another series has as its system patients. The conditions noted are these: clinical use; predominantly elderly patients, often hypokalaemic conditions; cited from earlier work.

For `CC(C)COC[C@@H](CN(Cc1ccccc1)c1ccccc1)N1CCCC1` [R-(dextro-rotatory) isomer, R-β-[(2-methylpropoxy)-methyl]-N-phenyl-N-(phenylmethyl)-l-pyrrolidine-ethanamine], in series [1], the QTc prolongation result is given as “does not produce QTc prolongation”. Besides, in the series on calcium, the calcium-antagonistic activity result is recorded as “significant increase of calcium-antagonistic activity”. In addition, the anti-arrhythmic potency result in “anti-arrhythmic potency” is reported as “not significantly different”. In addition, the arrhythmogenic activity entry with rat is “do not possess arrhythmogenic activity”. Besides, the solubility in water entry in the series “solubility in water” is recorded as “much better solubility in water than the racemate”.

In the case of `CC(C)COCC(CN(Cc1ccccc1)c1ccccc1)N1CCCC1` (racemic) [racemate, bepridil, reference compound], the arrhythmogenic activity entry in the series with rat is “exacerbates arrhythmias”. Besides, the “rhythm disturbance of the ventricular tachycardia type” value in the series on patients is given as “in rare cases been attended by a self limiting rhythm disturbance of the so-called ventricular tachycardia type”.
